# According to the supplement of paper PMC11208160:
# Experiment: recombinant barcode read abundance after kanamycin selection (control-corrected) (log10(CPM+1)); higher = more efficient recombination; sequences stand for … in AGTGCAGAGAAAATCGGCCAGTTTTCTCTGCCTGCAGTCCGCATGCCGT…AGATTTATGCAGCGGACTGCCTTTCTCCCAAAGTGATAAACCGGACAGTATCATGGACCGGTTTTCCCGGTAATCCGTATTTGCAAGGTTGGTTTCACT; site = the 11-nt target
# Experimental: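 Pooled E. coli target-specificity screen for the IS621 bridge recombinase. Each library plasmid pairs an 11-nt target (CT core) with a bridge RNA whose target-binding loop (9-nt LTG + 4-nt RTG) is reprogrammed; the rest of the 177-nt WT IS621 bridge RNA scaffold is fixed. The plasmid is co-electroporated with a WT donor plasmid; recombinase is induced with 0.1 mM IPTG and recombinants are selected on kanamycin. Recombinant barcodes are sequenced, converted to CPM, averaged over two biological replicates and corrected by the unselected control CPM. Molecule = full bridge RNA written as DNA: LTG = specificity nt 1-9, RTG = reverse complement of specificity nt 8-11, in the WT scaffold.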
# 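Further: IS621 recombinase and bridge RNA in Escherichia coli cells.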
row,Sequence,recombinant barcode read abundance (log10)
1,AGATTCACTTGGGTTCTAACCTGTTGCCT (site AGATTGACTTG),0.0824
2,AGATTCCCTTGGGTTCTAACCTGTTGCCG (site AGATTCCCTCG),1.67
3,AGATTCCCTTGGGTTCTAACCTGTTGCCG (site AGATTCGCTCG),0.0429
4,AGATTTCCTTGGGTTCTAACCTGTTGCAT (site AGATTTCCTAT),0.173
5,AGATTTCCTTGGGTTCTAACCTGTTGCAT (site CATCCGACTGA),0.0339
6,AGCAACACTTGGGTTCTAACCTGTTGCAG (site AGCAACACTCT),0.467
7,AGCAACACTTGGGTTCTAACCTGTTGCAG (site TCTCGTCCTTA),0.0984
8,AGCAATTCTTGGGTTCTAACCTGTTGCCT (site AGAAATTCTAG),0.144
9,AGCAATTCTTGGGTTCTAACCTGTTGCCT (site AGCAATTCTAG),0.165
10,AGCAATTCTTGGGTTCTAACCTGTTGCCT (site AGGAATTCTAG),0.132
11,AGCAATTCTTGGGTTCTAACCTGTTGCCT (site AGTAATTCTAG),0.277
12,AGCAGCTCTTGGGTTCTAACCTGTTGCCT (site AGCAGCTCTAG),1.7
13,AGCAGCTCTTGGGTTCTAACCTGTTGCCT (site AGGAGCGCTAG),0.0136
14,AGCAGGACTTGGGTTCTAACCTGTTGCCG (site AGCACGACTCA),0.0667
15,AGCAGGACTTGGGTTCTAACCTGTTGCCG (site AGCAGGACTCG),1.17
16,AGCAGGGCTTGGGTTCTAACCTGTTGCAG (site AGCAGGGCTCT),2.14
17,AGCAGGGCTTGGGTTCTAACCTGTTGCAG (site AGTAGGACTCT),0.184
18,AGCAGGTCTTGGGTTCTAACCTGTTGCCT (site AACAGGTCTAG),0.109
19,AGCAGGTCTTGGGTTCTAACCTGTTGCCT (site ACCAGGTCTAG),0.234
20,AGCAGGTCTTGGGTTCTAACCTGTTGCCT (site AGCAGGTCTAG),1.09
21,AGCAGGTCTTGGGTTCTAACCTGTTGCCT (site ATCAGGTCTAG),0.0118

row,Sequence,recombinant barcode read abundance (log10)
1,AGCAGTCCTTGGGTTCTAACCTGTTGCGT (site AGCAGTCCTAC),1.47
2,AGCAGTCCTTGGGTTCTAACCTGTTGCGT (site AGGAGTCCTAC),0.188
3,AGCAGTCCTTGGGTTCTAACCTGTTGCTG (site AGCAGTCCTCA),0.802
4,AGCAGTCCTTGGGTTCTAACCTGTTGCTG (site TCCAGTCCTCA),0.0256
5,AGCCACACTTGGGTTCTAACCTGTTGCCT (site AGCCACACTAG),0.933
6,AGCCACACTTGGGTTCTAACCTGTTGCCT (site AGCCACCCTAG),0
7,AGCCACACTTGGGTTCTAACCTGTTGCCT (site AGCCACGCTAG),0.374
8,AGCCACACTTGGGTTCTAACCTGTTGCCT (site AGCCACTCTAG),0.456
9,AGCCACACTTGGGTTCTAACCTGTTGCGT (site AGCCACACTAC),0.948
10,AGCCACACTTGGGTTCTAACCTGTTGCGT (site TGCCAGACTAC),0.183
11,AGCCCTCCTTGGGTTCTAACCTGTTGCTT (site AGCCCTCCTAA),0.518
12,AGCCCTCCTTGGGTTCTAACCTGTTGCTT (site AGCCCTCCTCA),0.667
13,AGCCCTCCTTGGGTTCTAACCTGTTGCTT (site AGCCCTCCTGA),0.038
14,AGCCCTCCTTGGGTTCTAACCTGTTGCTT (site AGCCCTCCTTA),0.0347
15,AGCCTCCCTTGGGTTCTAACCTGTTGCCT (site AGACTCCCTAG),0.089
16,AGCCTCCCTTGGGTTCTAACCTGTTGCCT (site AGCCTCCCTAG),0.474
17,AGCCTCCCTTGGGTTCTAACCTGTTGCCT (site AGGCTCCCTAG),0.0381
18,AGCCTCCCTTGGGTTCTAACCTGTTGCCT (site AGTCTCCCTAG),0.578
19,AGCCTGACTTGGGTTCTAACCTGTTGCCT (site AGCCTGACTAG),0.741
20,AGCCTGACTTGGGTTCTAACCTGTTGCCT (site AGCCTGCCTAG),0.313
21,AGCCTGACTTGGGTTCTAACCTGTTGCCT (site AGCCTGGCTAG),0.332

row,Sequence,recombinant barcode read abundance (log10)
1,AGCCTGACTTGGGTTCTAACCTGTTGCCT (site AGCCTGTCTAG),0
2,AGCCTGGCTTGGGTTCTAACCTGTTGCCT (site AGCCTGACTAG),0.302
3,AGCCTGGCTTGGGTTCTAACCTGTTGCCT (site AGCCTGCCTAG),0.235
4,AGCCTGGCTTGGGTTCTAACCTGTTGCCT (site AGCCTGGCTAG),0.594
5,AGCCTGGCTTGGGTTCTAACCTGTTGCCT (site AGCCTGTCTAG),0.0926
6,AGCGCTTCTTGGGTTCTAACCTGTTGCCT (site AACGCTTCTAG),0.241
7,AGCGCTTCTTGGGTTCTAACCTGTTGCCT (site ACCGCTTCTAG),0.423
8,AGCGCTTCTTGGGTTCTAACCTGTTGCCT (site AGCGCTTCTAG),0.454
9,AGCGCTTCTTGGGTTCTAACCTGTTGCCT (site ATCGCTTCTAG),0.0212
10,AGCGGACCTTGGGTTCTAACCTGTTGCCT (site AGCGGACCTAG),1.45
11,AGCGGACCTTGGGTTCTAACCTGTTGCCT (site AGCGGCCCTAG),0.133
12,AGCGGACCTTGGGTTCTAACCTGTTGCCT (site AGCGGGCCTAG),0.188
13,AGCGGACCTTGGGTTCTAACCTGTTGCCT (site AGCGGTCCTAG),0.0865
14,AGCTCACCTTGGGTTCTAACCTGTTGCCT (site AGCTCACCTAG),0.216
15,AGCTCACCTTGGGTTCTAACCTGTTGCCT (site AGCTCATCTAG),0.147
16,AGCTTACCTTGGGTTCTAACCTGTTGCCT (site AGCTTACCTAG),0.204
17,AGCTTACCTTGGGTTCTAACCTGTTGCCT (site CGCTTACCTAG),0.212
18,AGCTTACCTTGGGTTCTAACCTGTTGCCT (site GGCTTACCTAG),0.105
19,AGCTTACCTTGGGTTCTAACCTGTTGCCT (site TGCTTACCTAG),0.0503
20,AGCTTAGCTTGGGTTCTAACCTGTTGCCC (site AGCTTAGCTAG),0.306
21,AGCTTAGCTTGGGTTCTAACCTGTTGCCC (site AGCTTAGCTCG),0.0502

row,Sequence,recombinant barcode read abundance (log10)
1,AGCTTAGCTTGGGTTCTAACCTGTTGCCC (site AGCTTAGCTGG),0.395
2,AGCTTAGCTTGGGTTCTAACCTGTTGCCC (site AGCTTAGCTTG),0.0493
3,AGCTTGCCTTGGGTTCTAACCTGTTGCAG (site AGCTTGCCTCT),0.717
4,AGCTTGCCTTGGGTTCTAACCTGTTGCAG (site CATAGCGCTAG),0.277
5,AGCTTTGCTTGGGTTCTAACCTGTTGCCT (site AGCATTGCTAG),0.015
6,AGCTTTGCTTGGGTTCTAACCTGTTGCCT (site AGCCTTGCTAG),0.171
7,AGCTTTGCTTGGGTTCTAACCTGTTGCCT (site AGCGTTGCTAG),0.669
8,AGCTTTGCTTGGGTTCTAACCTGTTGCCT (site AGCTTTGCTAG),0.0693
9,AGGAACCCTTGGGTTCTAACCTGTTGCTG (site AGGAACCCTAA),0.712
10,AGGAACCCTTGGGTTCTAACCTGTTGCTG (site AGGAACCCTCA),1.78
11,AGGAACCCTTGGGTTCTAACCTGTTGCTG (site AGGAACCCTGA),0.106
12,AGGAACCCTTGGGTTCTAACCTGTTGCTG (site AGGAACCCTTA),0.08
13,AGGACGACTTGGGTTCTAACCTGTTGCCT (site AGCGCGACTAG),0.0505
14,AGGACGACTTGGGTTCTAACCTGTTGCCT (site AGGACGACTAG),0.376
15,AGGAGAACTTGGGTTCTAACCTGTTGCCT (site AGCATAACTAG),0.447
16,AGGAGAACTTGGGTTCTAACCTGTTGCCT (site AGGAGAACTAG),1.35
17,AGGAGCCCTTGGGTTCTAACCTGTTGCTC (site AGGAGCCCTAA),0.124
18,AGGAGCCCTTGGGTTCTAACCTGTTGCTC (site AGGAGCCCTCA),0.152
19,AGGAGCCCTTGGGTTCTAACCTGTTGCTC (site AGGAGCCCTGA),0.377
